These are literature values, as cited in patent US20200319191A1, “MOLECULAR PROFILING FOR CANCER” (Caris MPI, Inc., priority 2015, published 2020).

The structures appear in SMILES notation. Read-outs that look alike come from different tables or passages of the source.

Data set [1] has as its target T1, ribonucleotide reductase (Homo sapiens, UniProt P23921).
T1 sequence (P23921 1-792): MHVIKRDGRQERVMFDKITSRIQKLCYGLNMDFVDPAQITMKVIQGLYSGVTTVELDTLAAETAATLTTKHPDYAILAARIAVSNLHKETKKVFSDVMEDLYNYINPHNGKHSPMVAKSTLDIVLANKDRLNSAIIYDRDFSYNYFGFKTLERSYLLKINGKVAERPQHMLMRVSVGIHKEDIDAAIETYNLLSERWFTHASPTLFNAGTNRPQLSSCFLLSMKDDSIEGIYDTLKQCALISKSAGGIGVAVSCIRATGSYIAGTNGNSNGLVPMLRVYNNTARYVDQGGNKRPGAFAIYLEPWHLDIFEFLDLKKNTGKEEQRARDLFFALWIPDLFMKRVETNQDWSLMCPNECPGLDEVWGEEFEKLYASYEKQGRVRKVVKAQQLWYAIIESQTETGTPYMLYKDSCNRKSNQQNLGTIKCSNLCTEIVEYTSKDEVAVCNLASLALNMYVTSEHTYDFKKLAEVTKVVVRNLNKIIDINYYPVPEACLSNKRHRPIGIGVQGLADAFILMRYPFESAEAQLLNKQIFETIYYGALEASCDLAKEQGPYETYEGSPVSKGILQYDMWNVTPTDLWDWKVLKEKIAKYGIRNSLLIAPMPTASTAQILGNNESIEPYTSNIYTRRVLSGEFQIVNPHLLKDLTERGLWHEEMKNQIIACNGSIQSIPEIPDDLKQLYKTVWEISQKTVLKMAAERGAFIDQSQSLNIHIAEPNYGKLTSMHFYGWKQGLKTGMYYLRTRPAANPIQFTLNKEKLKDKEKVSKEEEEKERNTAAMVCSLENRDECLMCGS

Data set [2] concerns the target c-Kit (Homo sapiens, UniProt P10721).
Data set [3] deals with platelet-derived growth factor receptor (PDGFR).
Setting [4] is: Hormonal Agents, ER Positive (IHC)=T.

c-Kit, sequence (P10721 26-976): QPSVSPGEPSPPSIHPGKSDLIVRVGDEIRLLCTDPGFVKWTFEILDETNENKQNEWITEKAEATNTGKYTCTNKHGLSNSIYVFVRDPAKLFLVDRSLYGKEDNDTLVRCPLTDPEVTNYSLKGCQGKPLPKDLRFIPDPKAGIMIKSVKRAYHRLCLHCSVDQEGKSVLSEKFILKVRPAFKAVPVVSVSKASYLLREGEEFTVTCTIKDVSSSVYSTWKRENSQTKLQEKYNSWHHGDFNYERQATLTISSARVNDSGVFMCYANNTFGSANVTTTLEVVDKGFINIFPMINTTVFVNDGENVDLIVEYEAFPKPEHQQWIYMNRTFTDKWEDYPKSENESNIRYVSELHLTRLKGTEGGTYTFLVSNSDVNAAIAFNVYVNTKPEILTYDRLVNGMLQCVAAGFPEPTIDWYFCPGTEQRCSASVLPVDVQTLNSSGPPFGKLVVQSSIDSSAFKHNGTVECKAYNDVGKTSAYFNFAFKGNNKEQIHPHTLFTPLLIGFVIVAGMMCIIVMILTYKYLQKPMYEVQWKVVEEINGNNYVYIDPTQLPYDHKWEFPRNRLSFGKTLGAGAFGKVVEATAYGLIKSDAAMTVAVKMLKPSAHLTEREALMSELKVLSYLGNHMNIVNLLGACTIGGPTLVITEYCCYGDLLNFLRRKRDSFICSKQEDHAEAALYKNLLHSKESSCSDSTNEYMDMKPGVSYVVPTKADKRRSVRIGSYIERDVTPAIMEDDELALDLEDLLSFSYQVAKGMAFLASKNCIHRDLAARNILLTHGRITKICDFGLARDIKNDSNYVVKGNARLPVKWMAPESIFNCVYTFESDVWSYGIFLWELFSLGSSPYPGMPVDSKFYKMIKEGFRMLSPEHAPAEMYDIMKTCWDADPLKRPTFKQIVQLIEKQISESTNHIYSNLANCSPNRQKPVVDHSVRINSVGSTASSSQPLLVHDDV

`Nc1ccn([C@@H]2O[C@H](CO)[C@@H](O)C2(F)F)c(=O)n1` [Gemcitabine]: in data set [1], the “effect on ribonucleotide reductase activity” value is on record as “synthesis. Gemcitabine is a deoxycitidine analogue which inhibits ribonucleotide reductase”. Turning to `Cc1ccc(NC(=O)c2ccc(CN3CCN(C)CC3)cc2)cc1Nc1nccc(-c2cccnc2)n1` [Imatinib, imatinib], the kinase activity result in data set [2] and in data set [3] was “block the activity” throughout. Regarding `CC[C@@]1(O)C(=O)OCc2c1cc1n(c2=O)Cc2cc3ccccc3nc2-1` [camptothecin], the “sensitivity of AML tumor cells by NPM status” value (AML tumor cells with mutant NPM) is on record as “research shows AML tumor cells with mutant NPM are more sensitive to”. Consider `C=C1C[C@@H]2[C@H](CC[C@]3(C)C(=O)CC[C@@H]23)[C@@]2(C)C=CC(=O)C=C12` [exemestane], for which, where the note is “Hormonal Agents, ER Positive (IHC)=F”, the “Evid. Level, ER Positive (IHC)” value is 1. Moreover, under setting [4], the “Bene. Level, ER Positive (IHC)” value is 1 and the “Evid. Level, ER Positive (IHC)” value is listed as 1. As to `CCC1=C[C@@H]2CN(C1)Cc1c([nH]c3ccccc13)[C@@](C(=O)OC)(c1cc3c(cc1OC)N(C)[C@H]1[C@@](O)(C(=O)OC)[C@H](OC(C)=O)[C@]4(CC)C=CCN5CC[C@]31[C@@H]54)C2` [vinorelbine], under “loss of FBXW7, tubulin-targeting agents”, the “resistance by loss of FBXW7” value is listed as “loss of FBXW7 confers resistance to tubulin-targeting agents like paclitaxel or vinorelbine,”.
